Experiments:
[1] = test system: chronic phase (CP) chronic myeloid leukemia (CML); assay: Phase I dose escalation and dose expansion clinical trial: efficacy in CML-CP subjects; assay type: in vivo, humans
Source text: (§1) This study is a single-arm, open-label, dose-escalation and dose-expansion Phase I clinical trial.
(§2) The dose-escalation phase of this trial consists of about 8 dose groups, with oral administration under fasting conditions. Subjects in all dose groups will receive a single dose on Day 1 (D1), followed by pharmacokinetic (PK) and tolerability observations. […] After entering the multiple-dose period, subjects in the first dose group will initially receive twice-daily (BID) dosing (if PK data from the single-dose period are available, the dosing frequency during the multiple-dose period may be adjusted based on the PK data). The dosing frequency for subjects in subsequent dose groups after entering the multiple-dose period will be determined based on available PK and tolerability data. Throughout the trial, dosing frequency for all subjects may be adjusted based on continuously updated safety and PK data.
(§3) A continuous reassessment method (CRM) based on the principle of the escalation with overdose control (EWOC) design will be used to recommend the next specific dose for each dose escalation, thereby completing dose escalation and determining the maximum tolerated dose (MTD). If both the investigator and sponsor believe that higher dose groups may offer better efficacy and manageable safety, the EWOC-based CRM method may be used to explore higher doses. All enrolled subjects will receive long-term treatment with the test drug and undergo evaluations for safety, tolerability, and preliminary efficacy.
(§4) After obtaining certain research data from the dose-escalation phase, the investigator may comprehensively consider safety, efficacy, and other information to decide whether to enroll additional subjects at the MTD and/or lower dose levels to determine the recommended Phase II dose (RP2D). Two to four suitable dosing regimens will be selected for expansion in the target population (including subjects enrolled at the target dose levels during the escalation phase).
(§5) A total of 8 dose groups were established: 10 mg bid, 20 mg bid, 40 mg bid, 80 mg bid, 40 mg qd, 80 mg qd, 160 mg qd, and 240 mg qd.
(§6) The dose expansion phase was conducted in the following 3 cohorts: • Cohort 1: Subjects with chronic phase (CP) chronic myeloid leukemia (CML) who had previously received at least ≥2 different TKIs and were T315I-negative. A total of 3 dose groups were established: 40 mg qd, 80 mg qd, and 240 mg qd; • Cohort 2: Subjects with chronic phase (CP) chronic myeloid leukemia (CML) who have previously received ≥1 TKI and were T315I-positive. A total of 2 dose groups were established: 40 mg qd and 240 mg qd; • Cohort 3: Subjects with accelerated phase (AP) chronic myeloid leukemia (CML) who have previously received ≥1 TKI, regardless of T315I positivity. A total of 1 dose group was established: 240 mg qd.

[2] = test system: CML-AP with T315I mutation; assay: Phase I dose escalation and dose expansion clinical trial: efficacy in CML-AP subjects with T315I mutation; assay type: in vivo, humans
Source text: as §1, §2, §3, §4, §5, §6

[3] = test system: K562-luc human leukemia cells; assay: Pharmacodynamic study in animal model inoculated via the carotid artery with K562-luc cells (brain metastasis model); settings: 50 mg/kg p.o. qd
Experimental: K562-luc tumor cells were cultured in IMDM medium containing 10% fetal bovine serum and 1500 ng/mL puromycin in an incubator at 37°C with 5% CO2. The medium was replaced every 2 to 3 days. The cells were subcultured when the confluence reaches 80% - 90%. Tumor cells in the logarithmic growth phase were used for in vivo tumor inoculation.
Test animals: NCG mice, 6-8 weeks old, female, all handled according to SOP. The animals were housed in an SPF facility accredited by AAALAC (Association for Assessment and Accreditation of Laboratory Animal Care), in a constant-temperature and constant-humidity laminar flow clean room, using individually ventilated cages (IVC). […]
The mouse was placed supine on a neck surgery board with the upper incisors hooked and both forelimbs abducted and fixed. […] Tumor growth was monitored once weekly using an in vivo imaging system. […]
For routine monitoring, not only tumor growth but also behavioral changes of the animals were observed, including animal movement, food and water consumption (by cage-side observation), body weight changes, whether the eyes/hair were glossy, and any other abnormal effects. Any deaths and/or clinical signs of abnormalities were recorded. […]
Statistical analysis: Statistical analysis between groups was performed using SPSS 16.0 software. Mean and standard error were calculated for all measured parameters according to the experimental design. […]

[4] = CML-CP subjects previously treated with ponatinib, olverembatinib, asciminib, and/or HS-10382, as of June 2, 2024
[5] = CML-CP subjects, all doses, 58 evaluable, as of August 24, 2023
[6] = CML-CP subjects, all doses, as of August 24, 2023
[7] = CML-CP subjects, as of June 2, 2024
[8] = CML-CP, 10 mg BID, 2 evaluable subjects, as of August 24, 2023
[9] = CML-CP, 20 mg BID, 3 evaluable subjects, as of August 24, 2023
[10] = CML-CP, 40 mg BID, 1 evaluable subject, as of August 24, 2023
[11] = CML-CP, 40 mg QD, 15 evaluable subjects, as of August 24, 2023
[12] = CML-CP, 40 mg/day Total, 18 evaluable subjects, as of August 24, 2023
[13] = CML-CP, 80 mg BID, 3 evaluable subjects, as of August 24, 2023
[14] = CML-CP, 80 mg QD, 2 evaluable subjects, as of August 24, 2023
[15] = CML-CP, 80 mg/day Total, 3 evaluable subjects, as of August 24, 2023
[16] = CML-CP, 160 mg QD, 1 evaluable subject, as of August 24, 2023
[17] = CML-CP, 160 mg/day Total, 4 evaluable subjects, as of August 24, 2023
[18] = CML-CP, 240 mg QD, 31 evaluable subjects, as of August 24, 2023
[19] = CML-CP, Total, all dose groups, 58 evaluable subjects, as of August 24, 2023
[20] = CML-AP and T315I mutation, failed or intolerant to third-generation or later TKI therapy
[21] = CML-AP and T315I mutation, failed or intolerant to third-generation or later TKI therapy, 12 evaluable
[22] = CML-AP and T315I mutation, failed or intolerant to third-generation or later TKI therapy, Kaplan-Meier method
[23] = CML-AP subjects with T315I mutation, as of June 2, 2024

## O=C(Nc1ccc(OC(F)(F)Cl)cc1)c1cnc(N2CC[C@@H](F)C2)c(-c2cnccn2)c1 [Compound A, (R)-N-(4-(chlorodifluoromethoxy)phenyl)-6-(3-fluoropyrrolidin-1-yl)-5-(pyrazin-2-yl)nicotinamide]
[1]; [4]
  18-month cumulative incidence of CCyR: 17%
  18-month cumulative incidence of MCyR: 32%
[1]; CML-CP subjects, all doses, 35 evaluable, as of August 24, 2023
  CHR: 91.4%
[1]; [5]
  CCyR: 34.5%
  MCyR: 39.7%
[1]; CML-CP subjects, all doses, 62 evaluable, as of August 24, 2023
  MMR: 16.1%
[1]; [6]
  median time to CCyR: 2.81 (2.76, 3.30) months
  median time to MCyR: 2.83 (2.76, 3.68) months
  median time to MMR: 2.81 (2.76, 5.49) months
[1]; CML-CP subjects, 49 evaluable, as of June 2, 2024
  CHR within 3 treatment cycles: 82%
[1]; [7]
  18-month cumulative incidence rate for CCyR: 40%
  18-month cumulative incidence rate for MCyR: 52%
  18-month cumulative incidence rate for MMR: 26%
[1]; CML-CP, 10 mg BID, 0 evaluable subjects, as of August 24, 2023
  CHR: 0 n (%)
[1]; [8]
  CCyR: 1 (50.0) n (%)
  MCyR: 2 (100) n (%)
  MMR: 1 (50.0) n (%)
[1]; CML-CP, 20 mg BID, 2 evaluable subjects, as of August 24, 2023
  CHR: 2 (100) n (%)
[1]; [9]
  CCyR: 2 (66.7) n (%)
  MCyR: 2 (66.7) n (%)
  MMR: 0 n (%)
[1]; [10]
  CCyR: 0 n (%)
  CHR: 1 (100) n (%)
  MCyR: 0 n (%)
  MMR: 0 n (%)
[1]; CML-CP, 40 mg QD, 7 evaluable subjects, as of August 24, 2023
  CHR: 6 (85.7) n (%)
[1]; [11]
  CCyR: 5 (33.3) n (%)
  MCyR: 5 (33.3) n (%)
[1]; CML-CP, 40 mg QD, 17 evaluable subjects, as of August 24, 2023
  MMR: 3 (17.6) n (%)
[1]; CML-CP, 40 mg/day Total, 9 evaluable subjects, as of August 24, 2023
  CHR: 8 (88.9) n (%)
[1]; [12]
  CCyR: 7 (38.9) n (%)
  MCyR: 7 (38.9) n (%)
[1]; CML-CP, 40 mg/day Total, 20 evaluable subjects, as of August 24, 2023
  MMR: 3 (15.0) n (%)
[1]; CML-CP, 80 mg BID, 2 evaluable subjects, as of August 24, 2023
  CHR: 2 (100) n (%)
[1]; [13]
  CCyR: 1 (33.3) n (%)
  MCyR: 1 (33.3) n (%)
  MMR: 1 (33.3) n (%)
[1]; [14]
  CCyR: 1 (50.0) n (%)
  MCyR: 1 (50.0) n (%)
  MMR: 0 n (%)
[1]; CML-CP, 80 mg QD, 3 evaluable subjects, as of August 24, 2023
  CHR: 3 (100) n (%)
[1]; [15]
  CCyR: 1 (33.3) n (%)
  MCyR: 1 (33.3) n (%)
  MMR: 0 n (%)
[1]; CML-CP, 80 mg/day Total, 4 evaluable subjects, as of August 24, 2023
  CHR: 4 (100) n (%)
[1]; [16]
  CCyR: 1 (100) n (%)
  CHR: 1 (100) n (%)
  MCyR: 1 (100) n (%)
  MMR: 1 (100) n (%)
[1]; CML-CP, 160 mg/day Total, 3 evaluable subjects, as of August 24, 2023
  CHR: 3 (100) n (%)
[1]; [17]
  CCyR: 2 (50.0) n (%)
  MCyR: 2 (50.0) n (%)
  MMR: 2 (50.0) n (%)
[1]; CML-CP, 240 mg QD, 19 evaluable subjects, as of August 24, 2023
  CHR: 17 (89.5) n (%)
[1]; [18]
  CCyR: 9 (29.0) n (%)
  MCyR: 11 (35.5) n (%)
[1]; CML-CP, 240 mg QD, 33 evaluable subjects, as of August 24, 2023
  MMR: 4 (12.1) n (%)
[1]; CML-CP, Total, all dose groups, 35 evaluable subjects, as of August 24, 2023
  CHR: 32 (91.4) n (%)
[1]; [19]
  CCyR: 20 (34.5) n (%)
  MCyR: 23 (39.7) n (%)
[1]; CML-CP, Total, all dose groups, 62 evaluable subjects, as of August 24, 2023
  MMR: 10 (16.1) n (%)
[2]; [20]
  median EFS: 5.55 months
  median PFS: not reached
  median duration of MaHR response: 11.93 months
  median time to achieve CCyR: 4.19 (2.76, 5.62) months
  median time to achieve MCyR: 2.69 (2.69, 2.76) months
[2]; [21]
  CCyR: 16.7%
  MCyR: 25.0%
  MMR: 8.3%
[2]; CML-AP and T315I mutation, failed or intolerant to third-generation or later TKI therapy, 13 evaluable
  MaHR: 76.9%
[2]; [22]
  12-month EFS rate: 18.0%
  12-month PFS rate: 75.8%
[2]; [23]
  18-month cumulative incidence rate of CCyR: 30%
  18-month cumulative incidence rate of MCyR: 36%
  18-month cumulative incidence rate of MMR: 15%
[3]; day 28 after dosing, versus control group, Fig. 8
  BLI signal intensity of brain tumors (fluorescent signal): significantly inhibited
[3]; during the treatment period
  body weight loss: did not show significant body weight loss

Reference: patent EP4803080A1, “METHOD FOR TREATING LEUKEMIA” (Shenzhen TargetRx Co., Ltd., priority 2023, dated 2025)
